From patent US20030199431A1, “Modified peptide nucleic acid (PNA) molecules” (priority 1999, published 2003)
≈ marks a conversion by molar mass, not a printed value. Where two headings read alike, the source gives them in different places.

Experiments:
[1] = test system: Escherichia coli K12 MG1655; format: cell-based; conditions: cultures with 10^4-10^1 cells/ml; 37° C., 16 hours
Source text: (§1) The bacterial growth assay is designed to identify modified PNA molecules that inhibit or completely abolish bacterial growth. Growth inhibition results from antisense binding of PNA to mRNA of the targeted gene. The compound tested is present during the entire assay.
(§2) The experimental bacterial strain used is Escherichia coli K12 MG1655 (E. coli Genentic Stock Center, Yale University, New Haven). The medium for growth is 10% sterile LB (Lurea Bertani) medium. E. coli test cells are pre-cultured in LB medium at 37° C. over night (over night culture). The screen is performed in 96-well microtiter plates at 37° C. with constant shaking. PNAs are dissolved in H2O as a 40×concentrated stock solution.
(§3) A fresh culture (test culture) is inoculated with an overnight culture and grown to mid-log-phase (OD600=0.1 corresponding to 10^7 cells/ml) at 37° C. The test culture is diluted stepwise in the range 10^5 to 10^1 with 10% LB medium. 195 μl of diluted culture and 5 μl of a 40×concentrated PNA stock solution are added to each test well. 96-well microtiter plates are incubated in a microplate scanning spectrophotometer at 37° C. under constant shaking. OD600 measurements are performed automatically every 3.19 minutes and recorded simultaneously.
The assay was performed as follows. […] PNA design no. 2

E. coli K12 = format: cell-based, Escherichia coli
[2] = test system: Escherichia coli K12 MG1655; format: cell-based; conditions: cultures with 10^4-10^1 cells/ml; 37° C., 16 hours; remark: listed apart in the source
Source text: as §1, §2, §3
The assay was performed as follows.

[3] = test system: Enterococcus faecium strain 8803; conditions: E. facium strain 8803
[4] = test system: Enterococcus faecium ATCC 51550; conditions: E. facium strain ATCC 51550
[5] = test system: Enterococcus faecium ATCC 700221; conditions: E. facium strain ATCC 700221
[6] = test system: Staphylococcus aureus NCTC 8325; conditions: S. aureus strain 8325; characteristics of the strain; cited from earlier work
S. aureus strain 700698 [7] = conditions: S. aureus strain ATCC 700698; characteristics of the strain; cited from earlier work
S. aureus strain 700698R [8] = conditions: S. aureus strain ATCC 700698R; characteristics of the strain; cited from earlier work
[9] = test system: Staphylococcus aureus NCTC 8325; design: MIC: unit not given beside the values; conditions: S. aureus strain 8325
S. aureus strain 700698 [10] = test system: S. aureus strain 700698; design: MIC: unit not given beside the values; conditions: S. aureus strain ATCC 700698
S. aureus strain 700698R [11] = conditions: S. aureus strain ATCC 700698R; additional 24 hours at 35° C.

## H-KFFKFFKFFK-ado-CACTGGAAATTT-Lys-NH2 [PNA 26]
[1]
  PNA concentration giving total inhibition of growth: at least 2.5 μM

## H-KFFKFFKFF-ado-JTJTJJT-ado-ado-ado-TCCCTCTC-Lys-NH2 [Example 5]
E. coli K12
  Bacterial growth inhibition: − (key: +: Total inhibition of bacterial growth.; (+): Significantly extended lagphase, (more than five times); −: Lagphase extended less than five times;)

## H-KFFKFFKFFK-ado-TTTCATCCGCTG-Lys-NH2 [PNA 14]
[2]
  PNA concentration giving total inhibition of growth: at least 1.4 μM

## CC[C@H](C)[C@H](NC(=O)[C@H](CCCCN)NC(=O)[C@H](CCCCN)NC(=O)[C@H](CC(C)C)NC(=O)[C@@H](NC(=O)[C@@H](NC(=O)[C@H](C)NC(=O)[C@@H](NC(=O)[C@H](CCCCN)NC(=O)[C@H](CCCCN)NC(=O)[C@@H](NC(=O)[C@H](CC(C)C)NC(=O)[C@@H](NC(=O)[C@@H](NC(=O)CNC(=O)[C@H](CC(C)C)NC(=O)[C@@H]1CCCN1C(=O)[C@H](C)NC(=O)[C@H](CC(C)C)NC(=O)[C@@H](NC(=O)[C@@H](N)CO)[C@@H](C)CC)[C@@H](C)O)[C@@H](C)O)C(C)C)C(C)C)[C@@H](C)O)[C@@H](C)O)C(=O)N[C@@H](Cc1ccccc1)C(=O)N[C@@H](CO)C(=O)N[C@@H](CCCCN)C(=O)N[C@@H](Cc1c[nH]c2ccccc12)C(=O)N[C@@H](CCCCN)C(=O)N[C@@H](CSC1CC(=O)N(CC2CCC(C(=O)NCCOCCOCC(=O)NCCN(CC(=O)NCCN(CC(=O)NCCN(CC(=O)NCCN(CC(=O)NCCN(CC(=O)NCCN(CC(=O)NCCN(CC(=O)NCCN(CC(=O)NCCN(CC(=O)NCCN(CC(=O)NCCN(CC(=O)NCCN(CC(N)=O)C(=O)Cn3cnc4c(N)ncnc43)C(=O)Cn3cc(C)c(=O)[nH]c3=O)C(=O)Cn3cc(C)c(=O)[nH]c3=O)C(=O)Cn3cc(C)c(=O)[nH]c3=O)C(=O)Cn3cnc4c(N)ncnc43)C(=O)Cn3ccc(N)nc3=O)C(=O)Cn3cnc4c(N)ncnc43)C(=O)Cn3cnc4c(N)ncnc43)C(=O)Cn3cc(C)c(=O)[nH]c3=O)C(=O)Cn3ccc(N)nc3=O)C(=O)Cn3cc(C)c(=O)[nH]c3=O)C(=O)Cn3cc(C)c(=O)[nH]c3=O)CC2)C1=O)C(=O)O (some centres unmarked) [Example 22]
[3]
  MIC: <0.4 µM
[3]; additional 24 hours at 35° C.
  MBC: <0.4 µM
[4]
  MIC: <0.4 µM
[4]; additional 24 hours at 35° C.
  MBC: <0.4 µM
[5]
  MIC: <0.4 µM
[5]; additional 24 hours at 35° C.
  MBC: <0.4 µM

## CN[C@H](CC(C)C)C(=O)N[C@H]1C(=O)N[C@@H](CC(N)=O)C(=O)N[C@H]2C(=O)N[C@H]3C(=O)N[C@H](C(=O)N[C@H](C(=O)O)c4cc(O)cc(O)c4-c4cc3ccc4O)[C@H](O)c3ccc(c(Cl)c3)Oc3cc2cc(c3O[C@@H]2O[C@H](CO)[C@@H](O)[C@H](O)[C@H]2O[C@H]2C[C@](C)(N)[C@H](O)[C@H](C)O2)Oc2ccc(cc2Cl)[C@H]1O [Vancomycin]
[6]
  Vancomycin MIC: <0.5 µg/mL
S. aureus strain 700698 [7]
  Vancomycin MIC: 2 µg/mL
S. aureus strain 700698R [8]
  Vancomycin MIC: 11 µg/mL

## Cc1cn(CC(=O)N(CCNC(=O)CN(CCNC(=O)CN(CCNC(=O)CN(CCNC(=O)CN(CCNC(=O)CN(CCNC(=O)CN(CCNC(=O)COCCOCCNC(=O)C2CCC(CN3C(=O)CC(SC[C@H](NC(=O)[C@H](CCCCN)NC(=O)[C@H](CCCCN)NC(=O)[C@@H](NC(=O)[C@@H](NC(=O)[C@H](Cc4ccccc4)NC(=O)[C@H](CCCCN)NC(=O)[C@@H](NC(=O)[C@H](CCCCN)NC(=O)[C@H](Cc4ccccc4)NC(=O)[C@H](CCCCN)NC(=O)[C@@H](N)CCCCN)C(C)C)C(C)C)C(C)C)C(=O)O)C3=O)CC2)C(=O)Cn2cnc3c(N)ncnc32)C(=O)Cn2ccc(N)nc2=O)C(=O)Cn2cc(C)c(=O)[nH]c2=O)C(=O)Cn2cc(C)c(=O)[nH]c2=O)C(=O)Cn2cc(C)c(=O)[nH]c2=O)C(=O)Cn2cnc3c(=O)[nH]c(N)nc32)CC(=O)NCCN(CC(=O)NCCN(CC(=O)NCCN(CC(=O)NCCN(CC(=O)NCCN(CC(N)=O)C(=O)Cn2ccc(N)nc2=O)C(=O)Cn2ccc(N)nc2=O)C(=O)Cn2ccc(N)nc2=O)C(=O)Cn2cnc3c(=O)[nH]c(N)nc32)C(=O)Cn2ccc(N)nc2=O)c(=O)[nH]c1=O (some centres unmarked) [Example 24, H2N-KKFKVKFVVKKC-smcc-Ado-ACTTTGTCGCCC-NH2]
[9]
  MIC: 800/1600
[9]; additional 24 hours at 35° C.
  MBC: 1.6 µM (≈ 8.07 µg/mL)
S. aureus strain 700698 [10]
  MIC: 800/1600
S. aureus strain 700698 [10]; additional 24 hours at 35° C.
  MBC: 1.6 µM (≈ 8.07 µg/mL)
S. aureus strain 700698R [11]
  MBC: ≧1600 nM
